# Measurements from publication PMC8071358, “Targeting of the Essential acpP, ftsZ, and rne Genes in Carbapenem-Resistant Acinetobacter baumannii by Antisense PNA Precision Antibacterials” (Biomedicines, 2021).
# {(KFF)3K-eg1} = H-(KFF)3K peptide (K lysine, F phenylalanine) with eg1 linker (8-amino-3,6-dioxaoctanoyl), on the PNA N terminus (5' end); {NH2} = C-terminal amide
# Columns and labels:
# Type in all cases: cell-based, Acinetobacter baumannii
# A. baumannii ATCC 19606 = assay: BPP-PNA MIC, broth microdilution; conditions: 37 °C, 18 h
# Experimental: (§1) MIC values were determined by broth microdilution according to standard protocols with a few modifications. An overnight bacterial cell culture was diluted to approximately 5 × 10^5 CFU/mL in non-cation-adjusted Muller Hinton Broth (MHB). Then, 180 µL bacterial solutions were dispensed into a low-bind 96-well plate (Thermo-Scientific, Roskilde, Denmark) along with 20 µL of BPP-PNA compound (BPP-PNA was serially diluted 2-fold from 16 to 0.5 µM in a 96-well plate). The plate was incubated in a Tecan Genios plate reader (GMI, Minnesota, Ramsey, USA) at 37 °C for 18 h with linear shaking, OD was measured every 20 min at 595 nm. […] The minimum bactericidal concentration (MBC) values were determined by plating 10 µL samples from the wells with no visible turbidity onto Mueller–Hinton agar plates. The MBC is determined the lowest concentration of BPP-PNA that reduces the viability of the initial bacterial inoculum by ≥99.9% (3-log reduction in CFU/mL). A minimum of two independent experiments (biological replicates) of the assay were conducted, and two technical replicates were used in each experiment for each bacterium, compound, and concentration.
# CRAB strain AC1 = assay: BPP-PNA MIC, broth microdilution; conditions: MHB without cation (Oxoid); 37 °C, 18 h
# Experimental: as §1
# CRAB strain AC2 = assay: BPP-PNA MIC, broth microdilution
# Experimental: as §1
# CRAB strain AC3 = assay: BPP-PNA MIC, broth microdilution; conditions: MHB without cation (Oxoid); 37 °C, 18 h
# Experimental: as §1
# CRAB strain AC44 = assay: BPP-PNA MIC, broth microdilution
# Experimental: as §1
# CRAB strain AC4 = assay: BPP-PNA MIC, broth microdilution; conditions: MHB without cation (Oxoid); 37 °C, 18 h
# Experimental: as §1
# CRAB strain AC5 = assay: BPP-PNA MIC, broth microdilution; conditions: MHB without cation (Oxoid); 37 °C, 18 h
# Experimental: as §1
# CRAB strain AC6 = assay: BPP-PNA MIC, broth microdilution; conditions: MHB without cation (Oxoid); 37 °C, 18 h
# Experimental: as §1
# CRAB strain AC7 = assay: BPP-PNA MIC, broth microdilution; conditions: MHB without cation (Oxoid); 37 °C, 18 h
# Experimental: as §1
# CRAB strain AC8 = assay: BPP-PNA MIC, broth microdilution; conditions: MHB without cation (Oxoid); 37 °C, 18 h
# Experimental: as §1
# CRAB strain AC9 = assay: BPP-PNA MIC, broth microdilution; conditions: MHB without cation (Oxoid); 37 °C, 18 h
# Experimental: as §1
# A. baumannii SSI1104 = assay: BPP-PNA MIC, broth microdilution
# Experimental: as §1, with “An overnight bacterial cell culture was diluted to approximately 5 × 10^5 CFU/mL in non-cation-adjusted Muller Hinton Broth (MHB).” left out
# CRAB strain AC46 = assay: BPP-PNA MIC, broth microdilution
# Experimental: as §1, with “An overnight bacterial cell culture was diluted to approximately 5 × 10^5 CFU/mL in non-cation-adjusted Muller Hinton Broth (MHB).” left out
# CRAB strains = assay: BPP-PNA MIC/MBC summarised over the panel of strains
# Experimental: as §1
# [1] = tested on: antibiotic resistant clinical isolate AC46; assay: Minimum bactericidal concentration (MBC) assay; conditions: AC46, 24 h incubation, 1–8 μM
# Experimental: as §1
# [2] = MHB without cation (Oxoid), 37 °C, 18 h
# [3] = Table 4 (anti-rne), brand of medium not given, non-cation-adjusted MHB by method
substance,measurement,setting,value
"H-(KFF)3K-eg1-GAGTCCAGGAC-NH2 (all peptide nucleic acid (PNA), 5' {(KFF)3K-eg1}, 3' {NH2}) [PNA 5615, anti-ftsZ mismatch control of 5612]","MIC, ATCC 19606",A. baumannii ATCC 19606; MHB without cation (Oxoid),8 µM
same,"MIC, AC1",CRAB strain AC1,16 µM
same,"MIC, AC2",CRAB strain AC2; [2],16 µM
same,"MIC, AC3",CRAB strain AC3,8 µM
same,"MIC, AC44",CRAB strain AC44; [2],16 µM
same,"MIC, AC4",CRAB strain AC4,16 µM
same,"MIC, AC5",CRAB strain AC5,16 µM
same,"MIC, AC6",CRAB strain AC6,8 µM
same,"MIC, AC7",CRAB strain AC7,16 µM
same,"MIC, AC8",CRAB strain AC8,16 µM
same,"MIC, AC9",CRAB strain AC9,16 µM
same,"MIC, SSI 1104",A. baumannii SSI1104; [2],16 µM
same,"MIC, AC46",CRAB strain AC46; [2],16 µM
same,MIC50,"CRAB strains; over the CRAB and ATCC 19606 strains of Table 3, MHB without cation (Oxoid)",16 µM
"H-(KFF)3K-eg1-TTTCATGGGTG-NH2 (antisense; N-terminal (KFF)3K-eg1 peptide, C-terminal amide, backbone not given here, further chemistry not given here) [PNA 5656, anti-rne peptide-PNA conjugate, match, −5 to +6]","MIC, ATCC 19606",A. baumannii ATCC 19606; [3],2 µM
same,"MIC, AC2",CRAB strain AC2; [3],2 µM
same,"MIC, AC44",CRAB strain AC44; [3],2 µM
same,"MIC, SSI 1104",A. baumannii SSI1104; [3],2 µM
same,"MIC, AC46",CRAB strain AC46; [3],2 µM
same,concentration with bactericidal activity against carbapenem-resistant A. baumannii,CRAB strains,4 µM
same,bactericidal concentration relative to MIC,CRAB strains; CRAB strains,1–2 × MIC
same,MIC (complete growth inhibition) over the CRAB strains tested,CRAB strains; several A. baumannii strains,2 µM
same,MIC of match PNA lower than mismatch control (mismatch discrimination),CRAB strains; strains of Table 2 (5612 vs 5615) or Table 4 (5656 vs 5822),four-fold
same,CFU reduction in MBC assay compared to mismatch control,[1],very significant CFU reduction
